3 compounds from US20050175597A1 (priority 2002, published 2005) can be followed below.

Data set [1] deals with Lactobacillus plantarum. On the set-up: species or system mice. As to conditions: mouse, in vivo.
Data set [2] has as its system Lactobacillus casei shirota. In words: Lactobacillus casei shirota viable plate counts after SGF treatment with or without colostrum. To be noted: L. casei shirota, no colostrum.
Data set [3] has as its system Lactobacillus plantarum.

In the case of `O=C([O-])O.[Na+]` [sodium bicarbonate, Sodium bicarbonate], in the data set with Lactobacillus plantarum [1], the “survival of Lactobacillus plantarum (large intestine, FIG. 7)” value is given as “increased” and the “survival of Lactobacillus plantarum at higher concentrations of protectant” value is reported as “increased survival”.
Consider “Lactobacillus casei shirota [Lactobacillus + H2O]”, for which the “reduction in Lactobacillus viability” value in data set [2] is reported as ≥ 10,000 fold.
“Lactobacillus plantarum [Lactobacillus + H2O]”: the “reduction in Lactobacillus viability” value with Lactobacillus plantarum [3] is 1000 fold.
